Values quoted from earlier work, collected in article PMC9409351, “Differential Ganglioside and Cholesterol Depletion by Various Cyclodextrin Derivatives and Their Effect on Synaptosomal Glutamate Release” (International Journal of Molecular Sciences, 2022).

What was measured:
[1] = test system: cell model of GM1 gangliosidosis; set-up: method as in doi:10.1007/s10847-018-0835-8; conditions: immunofluorescence staining; cited from earlier work
cerebellar granule cells = test system: cerebellar granule cells; set-up: method as in PMID 12897192; conditions: in addition to cholesterol extraction; cited from earlier work

Row | Compound | Lysosomal accumulation of GM1 [1] | Sphingomyelin and GSL levels after treatment (cerebellar granule cells)
1 | COCC1OC2OC3C(COC)OC(OC4C(COC)OC(OC5C(COC)OC(OC6C(COC)OC(OC7C(COC)OC(OC1C(O)C2OC)C(OC)C7O)C(OC)C6O)C(OC)C5O)C(OC)C4O)C(OC)C3O (stereo not drawn) [DIMEA, hexakis(2,6-di-O-methyl)-alpha-cyclodextrin] | reduced lysosomal accumulation of GM1 | –
2 | methylated beta-cyclodextrins [MBCD] | – | reduction in the sphingomyelin and GSL levels
